According to patent publication US20090239846A1, “Novel Compounds” (Glaxo Group Limited, priority 2005, published 2009):
Where a name gives a salt, the structure may show the parent alone. Read-outs that look alike come from different tables or passages of the source.

Assays:
Recombinant human p38α [1] = molecular target: T1, Recombinant human p38α (Homo sapiens, UniProt Q16539); experiment: Fluorescence anisotropy kinase binding assay (standard or low volume); conditions: for active in the assay (pIC50, p38α binding): 12 nM p38α, 5 nM fluorescent ligand
T1 construct: GST; made in house
T1 sequence (Q16539 whole entry): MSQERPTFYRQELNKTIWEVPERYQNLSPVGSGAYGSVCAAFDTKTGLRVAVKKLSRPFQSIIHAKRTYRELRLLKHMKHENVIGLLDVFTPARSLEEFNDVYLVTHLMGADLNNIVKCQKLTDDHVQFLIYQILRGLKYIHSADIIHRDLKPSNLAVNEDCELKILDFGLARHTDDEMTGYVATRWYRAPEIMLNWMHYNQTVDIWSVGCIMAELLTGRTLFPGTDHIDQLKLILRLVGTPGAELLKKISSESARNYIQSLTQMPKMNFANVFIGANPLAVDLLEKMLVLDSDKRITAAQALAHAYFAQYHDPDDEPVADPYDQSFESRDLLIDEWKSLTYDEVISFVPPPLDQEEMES
Method in brief: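 Activated GST-tagged recombinant human p38α (pre-activated with MBP-MKK6 DD) at 12 nM final with 5 nM rhodamine green-labelled pyridinylimidazole tracer in pH 7.5 HEPES/CHAPS/DTT/MgCl2 buffer. Test compound 0.28 nM–16.6 μM or 0.02 nM–25 μM final, 3% or 1.7% DMSO; 30–60 min at room temperature. Fluorescence anisotropy read (ex 485/em 535 nm) for Ki.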

[2] = tested on: IL-8 production by human neutrophils; experiment: TNF-stimulated IL-8 production from human neutrophils; format: cell-based; conditions: Neutrophil
Method: TNF-Stimulated IL-8 Production from Human Neutrophils The effect of test compounds on TNF-stimulated IL8 production by human neutrophils is measured as follows. Neutrophils are prepared from blood obtained from consenting donors, using standard methods. Blood is collected in heparinized syringes and layered over histopaque (30 ml/20 ml). Following centrifugation, the red cell pellet is resuspended in PBS and purified over a dextran gradient. Red blood cells are lysed with water for 40 sec, remaining granulocytes collected by centrifugation and resuspended at 1.5×10̂6 cells/ml. Cells are added (0.5-1 ml) to 48 well plates already containing compound at 1000×final concentration in neat DMSO or 10% DMSO in RPMI1640 with 10% FBS. TNF (final concentration 100 ng/ml) is used as the stimulus. Cells incubated for approximately 20 hrs at 37° C., 5% CO2. Levels of IL-8 in the cell free supernatant are determined by sandwich ELISA, and inhibition relative to a control with DMPO but no compound is calculated.

Recombinant human p38α [3] = molecular target: T1, Recombinant human p38α; experiment: Time-resolved fluorescence resonance energy transfer (TR-FRET) kinase assay (standard or low volume); format: biochemical
Method: […] To activate this protein, 3 μM unactivated p38α was incubated in 200 mM Hepes pH 7.4, 625 mM NaCl, 1 mM DTT with 27 nM active MKK6 (Upstate), 1 mM ATP and 10 mM MgCl2 The activity of the MKK6-activated p38α was assessed using a time-resolved fluorescence resonance energy transfer (TR-FRET) assay. Biotinylated-GST-ATF2 (residues 19-96, 400 nM final), ATP ([…]) and MgCl2 (5 mM final) in assay buffer (40 mM HEPES pH 7.4, 1 mM DTT) were added to wells containing 1 ul of various concentrations of compound or DMSO vehicle (3% final) in NUNC 384 well black plate. The reaction was initiated by the addition of MKK6-activated p38 (100 pM final) to give a total volume of 30 ul. The reaction was incubated for 120 minutes at room temperature, then terminated by the addition of 15 μl of 100 mM EDTA pH 7.4. Detection reagent (15 μl) in buffer (100 mM HEPES pH 7.4, 150 mM NaCl, 0.1% w/v BSA, 1 mM DTT) containing antiphosphothreonine-ATF2-71 polyclonal antibody (Cell Signalling Technology, Beverly Mass., USA) labelled with W-1024 europium chelate (Wallac OY, Turku, Finland), and APC-labelled streptavidin (Prozyme, San Leandro, Calif., USA) was added and the reaction was further incubated for 60 minutes at room temperature. The degree of phosphorylation of GST-ATF2 was measured using a Packard Discovery plate reader (Perkin-Elmer Life Sciences, Pangbourne, UK) as a ratio of specific 665 nm energy transfer signal to reference europium 620 nm signal.
[…] To activate this protein, 3 μM unactivated p38α was incubated in 200 mM Hepes pH7.4, 625 mM NaCl, 1 mM DTT with 27 nM active MKK6 (Upstate), 1 mM ATP and 10 mM MgCl2 The activity of the MKK6-activated p38α was assessed using a time-resolved fluorescence resonance energy transfer (TR-FRET) assay. Biotinylated-GST-ATF2 (residues 19-96, 400 nM final), ATP (125 μM final) and MgCl2 (5 mM final) in assay buffer (40 mM HEPES pH 7.4, 1 mM DTT) were added to wells containing 0.1 μl of various concentrations of compound or DMSO vehicle (1.7% final) in Greiner low volume 384 well black plate. The reaction was initiated by the addition of MKK6-activated p38α (100 pM final) to give a total volume of 6 μl. The reaction was incubated for 120 minutes at room temperature, then terminated by the addition of 3 μl of detection reagent in buffer (100 mM HEPES pH 7.4, 150 mM NaCl, 0.1% w/v BSA, 1 mM DTT, 100 mM EDTA) containing antiphosphothreonine-ATF2-71 polyclonal antibody (Cell Signalling Technology, Beverly Mass., USA) labelled with W-1024 europium chelate (Wallac OY, Turku, Finland), and APC-labelled streptavidin (Prozyme, San Leandro, Calif., USA). The reaction was further incubated for 60 minutes at room temperature. The degree of phosphorylation of GST-ATF2 was measured using a BMG Rubystar plate reader (BMG, UK) as a ratio of specific 665 nm energy transfer signal to reference europium 620 nm signal. It is noted that there are two assay formats shown above for the Time-resolved fluorescence resonance energy transfer kinase assay. The only difference between these two assays is the volume used and the plate type. […] The results described herein may have been performed in either assay format and are not differentiated as to which.

TNFalpha = experiment: LPS-stimulated cytokine production in human whole blood; format: cell-based; conditions: LPS-stimulated TNF-alpha, bound, read-out: IC50
Method: Assay: Test compound concentrations were prepared at 10× concentrations and LPS prepared at 1 ug/ml (final conc. of 50 ng/ml LPS) and added in 50 uL volumes to 1.5 mL eppendorf tubes. Heparinized human whole blood was obtained from healthy volunteers and was dispensed into eppendorf tubes or multiwell plates containing compounds and LPS in 0.2-0.4 mL volumes and the tubes incubated at 37 C. In some studies, compound was incubated with blood for up to 30 min prior to addition of LPS. Following a 4 hour incubation, the tubes or plates were centrifuged to remove cells and plasma was withdrawn and frozen at −80 C. Cytokine measurement: IL-1beta and/or TNFalpha were quantified using a standardized ELISA, or similar technology. Concentrations of IL-1beta or TNFalpha were determined from standard curves of the appropriate cytokine and IC50 values for test compound (concentration that inhibited 50% of LPS-stimulated cytokine production) were calculated by linear regression analysis.

[4] = tested on: IL-6, IL-8, GM-CSF, RANTES and COX-2 synthesis; conditions: a number of different cell types; cited from earlier work
[5] = tested on: TGF-β-induced fibronectin and thrombospondin; conditions: Laping et al., 2002; cited from earlier work
[6] = second end given as 'less than', read-out: pIC50, broad range of data upon multiple runs (converted)
[7] = bound, read-out: apparent pIC50 (converted)
[8] = bound, not more than 50% inhibition at 100 nM, read-out: IC50
[9] = bound, read-out: pIC50 (converted)

SMILES | IC50 (Recombinant human p38α [3]; [6]) | IC50 (Recombinant human p38α [1]; [7]) | IC50 [2, 8] | further results
Cc1ccc(C(=O)NC2CCC2)cc1-c1nc(N2CCC(N)CC2)nc2c1CNC(=O)N2c1c(F)cccc1F [1(g), 3-[2-(4-Amino-1-piperidinyl)-8-(2,6-difluorophenyl)-7-oxo-5,6,7,8-tetrahydropyrimido[4,5-d]pyrimidin-4-yl]-N-cyclobutyl-4-methylbenzamide] | ≥ 7.94 nM | – | – | active in the assay (pIC50, p38α binding) (Recombinant human p38α [1]): active; IC50 ([2]; ends given as 'less than' / 'greater than', read-out: IC50, broad range of data upon multiple runs): 40 to 100 nM
Cc1ccc(C(=O)Nc2ccc(C)c(-c3nc(NC4CCNCC4)nc4c3CNC(=O)N4c3c(F)cccc3F)c2)cc1F [Example 27(b), N-{3-[8-(2,6-difluorophenyl)-7-oxo-2-(4-piperidinylamino)-5,6,7,8-tetrahydropyrimido[4,5-d]pyrimidin-4-yl]-4-methylphenyl}-3-fluoro-4-methylbenzamide] | – | – | – | active in the assay (pIC50, p38α binding) (Recombinant human p38α [1]): active; IC50 (Recombinant human p38α [3]; [9]): > 15800 nM; melting point: 218 to 223.5 °C
CCN(CC)C(=O)c1ccc(C)c(-c2nc(N(C)CCCN(C)C)nc3c2CNC(=O)N3c2c(F)cccc2F)c1 [Example 161, 3-{8-(2,6-difluorophenyl)-2-[[3-(dimethylamino)propyl](methyl)amino]-7-oxo-5,6,7,8-tetrahydropyrimido[4,5-d]pyrimidin-4-yl}-N,N-diethyl-4-methylbenzamide] | – | – | – | active in the assay (pIC50, p38α binding) (Recombinant human p38α [1]): active; melting point: 106 to 108 °C; IC50 (TNFalpha): > 1000 nM
CCN(CC)C(=O)c1ccc(C)c(-c2nc(N3CCN(C)CC3)nc3c2CNC(=O)N3c2c(F)cccc2F)c1 [Example 162, 3-[8-(2,6-difluorophenyl)-2-(4-methyl-1-piperazinyl)-7-oxo-5,6,7,8-tetrahydropyrimido[4,5-d]pyrimidin-4-yl]-N,N-diethyl-4-methylbenzamide] | – | – | – | IC50 (Recombinant human p38α [1]; [6]): ≥ 1260 nM; melting point: 201 to 205 °C (dec.); IC50 (TNFalpha): > 1000 nM
C[S+]([O-])c1ccc(-c2nc(-c3ccncc3)c(-c3ccc(F)cc3)[nH]2)cc1 (stereo not drawn) [SB-203580] | – | – | – | decreasing the synthesis of pro-inflammatory proteins including IL-6, IL-8, GM-CSF, RANTES and COX-2 [4]: effective
COc1nccc(-c2c(-c3ccc(F)cc3)ncn2C2CCNCC2)n1 [SB-242235] | – | – | – | effect on TGF-β-induced increases in fibronectin and thrombospondin [5]: inhibited
Fc1ccc(-c2nc3n(c2-c2ccncc2)CCS3)cc1 [SK&F 86002] | – | – | – | decreasing the synthesis of pro-inflammatory proteins including IL-6, IL-8, GM-CSF, RANTES and COX-2 [4]: effective

Continued, in another order:

IC50 (Recombinant human p38α [3]; [6]) | IC50 (Recombinant human p38α [1]; [7]) | IC50 [2, 8] | SMILES | further results
≥ 158 nM | > 15800 nM | > 100 nM | Cc1cc(C(=O)NC(C)C)ccc1-c1nc(NCCN(C)C)nc2c1CNC(=O)N2c1c(F)cccc1F [104(c), 4-(8-(2,6-difluorophenyl)-2-{[2-(dimethylamino)ethyl]amino}-7-oxo-5,6,7,8-tetrahydropyrimido[4,5-d]pyrimidin-4-yl)-3-methyl-N-(1-methylethyl)benzamide trifluoroacetate] | –
≥ 7.94 nM | – | – | Cc1ccc(C(=O)NCc2ccccc2)cc1-c1nc(NCCN(C)C)nc2c1CNC(=O)N2c1c(F)cccc1F [Example 18, 3-(8-(2,6-Difluorophenyl)-2-{[2-(dimethylamino)ethyl]amino}-7-oxo-5,6,7,8-tetrahydropyrimido[4,5-d]pyrimidin-4-yl)-4-methyl-N-(phenylmethyl)benzamide] | melting point: 148 to 150 °C
≥ 158 nM | > 15800 nM | – | CC(C)NC(=O)c1ccc(-c2nc(NCCN(C)C)nc3c2CNC(=O)N3c2c(F)cccc2F)cc1 [Example 97, 4-(8-(2,6-difluorophenyl)-2-{[2-(dimethylamino)ethyl]amino}-7-oxo-5,6,7,8-tetrahydropyrimido[4,5-d]pyrimidin-4-yl)-N-(1-methylethyl)benzamide trifluoroacetate] | –
≥ 158 nM | > 15800 nM | – | CNC(=O)c1ccc(-c2nc(NCCN(C)C)nc3c2CNC(=O)N3c2c(F)cccc2F)cc1 [Example 102, 4-(8-(2,6-difluorophenyl)-2-{[2-(dimethylamino)ethyl]amino}-7-oxo-5,6,7,8-tetrahydropyrimido[4,5-d]pyrimidin-4-yl)-N-methylbenzamide trifluoroacetate] | –
– | > 15800 nM | > 100 nM | CCCNC(=O)c1ccc(-c2nc(NCCN(C)C)nc3c2CNC(=O)N3c2c(F)cccc2F)c(C)c1 [Example 105, 4-(8-(2,6-difluorophenyl)-2-{[2-(dimethylamino)ethyl]amino}-7-oxo-5,6,7,8-tetrahydropyrimido[4,5-d]pyrimidin-4-yl)-3-methyl-N-propylbenzamide trifluoroacetate] | IC50 (Recombinant human p38α [3]; [9]): > 1580 nM
≥ 158 nM | > 15800 nM | > 100 nM | Cc1cc(C(=O)Nc2ccccc2)ccc1-c1nc(NCCN(C)C)nc2c1CNC(=O)N2c1c(F)cccc1F [Example 106, 4-(8-(2,6-difluorophenyl)-2-{[2-(dimethylamino)ethyl]amino}-7-oxo-5,6,7,8-tetrahydropyrimido[4,5-l]pyrimidin-4-yl)-3-methyl-N-phenylbenzamide trifluoroacetate] | –
– | > 15800 nM | > 100 nM | Cc1cc(C(=O)Nc2ccc(F)cc2)ccc1-c1nc(NCCN(C)C)nc2c1CNC(=O)N2c1c(F)cccc1F [Example 107, 4-(8-(2,6-difluorophenyl)-2-{[2-(dimethylamino)ethyl]amino}-7-oxo-5,6,7,8-tetrahydropyrimido[4,5-d]pyrimidin-4-yl)-N-(4-fluorophenyl)-3-methylbenzamide trifluoroacetate] | IC50 (Recombinant human p38α [3]; [9]): > 1580 nM
≥ 158 nM | > 15800 nM | > 100 nM | Cc1cc(C(=O)N(C)C)ccc1-c1nc(NCCN(C)C)nc2c1CNC(=O)N2c1c(F)cccc1F [Example 108, 4-(8-(2,6-difluorophenyl)-2-{[2-(dimethylamino)ethyl]amino}-7-oxo-5,6,7,8-tetrahydropyrimido[4,5-d]pyrimidin-4-yl)-N,N,3-trimethylbenzamide trifluoroacetate] | –
– | > 15800 nM | > 100 nM | Cc1cc(C(N)=O)ccc1-c1nc(NCCN(C)C)nc2c1CNC(=O)N2c1c(F)cccc1F [Example 110, 4-(8-(2,6-difluorophenyl)-2-{[2-(dimethylamino)ethyl]amino}-7-oxo-5,6,7,8-tetrahydropyrimido[4,5-d]pyrimidin-4-yl)-3-methylbenzamide trifluoroacetate] | IC50 (Recombinant human p38α [3]; [9]): > 1580 nM
≥ 158 nM | – | – | Cc1ccc(C(=O)O)cc1-c1nc(NCCN(C)C)nc2c1CNC(=O)N2c1c(F)cccc1F [Example 117, 3-(8-(2,6-difluorophenyl)-2-{[2-(dimethylamino)ethyl]amino}-7-oxo-5,6,7,8-tetrahydropyrimido[4,5-d]pyrimidin-4-yl)-4-methylbenzoic acid] | active in the assay (pIC50, p38α binding) (Recombinant human p38α [1]): active; IC50 (TNFalpha): > 1000 nM
